Test results: patent US20240158370A1, “CK1 alpha AND DUAL CK1 alpha / GSPT1 DEGRADING COMPOUNDS” (Innovo Therapeutics, Inc., priority 2022, published 2024)

What was measured:
CK1α = target: T1, CK1α (Homo sapiens, UniProt P48729+Q96SW2); assay: HiBiT degradation assay, CK1α, Procedure A; type: cell-based
T1 construct: CSNK1A1-HiBit KI HEK293(LgBit) Cells; host or cells: HEK293(LgBit) knock-in cells
Method: (§1) Compounds were spotted onto Cornin 384-Well, Cell Culture-Treated, Flat-Bottom, Low Flange Microplate (Fisher Scientific, Catalog #07-201-013) using a Tecan D300e digital dispenser. Ten-point dose response curves spanning from 10 μM to 0.005 μM with a 0.1% DMSO tolerance were used.
(§2) Cells were dissociated from tissue 182 cm^2 Tissue Culture Flask (CellTreat Catalog #229351) by washing the cells with PBS (Fisher Scientific Catalog #BP3994) followed by dissociation with Trypsin-EDTA (0.25%) (Thermo Scientific Catalog #25200056). Trysin was neutralized and cells were resuspended with DMEM+10% FBS. Cells were centrifuged for 5 minutes at 1200 RPMs. Cell culture media was aspirated off and cells were resuspended with DMEM+10% FBS. Cell density was determined using a Denovix CellDrop BF cell counter. Cell density was adjusted to 1×10^6 cells/ml. 40 μl of cells was added to compound treated tissue culture plates and incubated for six hours at 37° C. After six hours, cell culture plates were removed from tissue culture incubator and cooled to room temperature. 40 μl of Nano-GloHiBiT Lytic Detection Reagent (Promega, Catalog #N3040) was added to each well. Plates were placed on an orbital shaker (600 rpm) for 20 minutes. Luminescence was measured using an Envsion plate reader (Perkin Elmer). DC50 curves and Ymin were generated using a 4-parameter curve fit with GraphPad Prism software (Prism Corporation).
(§3) Results from the HiBiT assay (DC50 (nM) and Ymin (% remaining)) are shown below. All CK1α data was generated according to Procedure A. GSPT1 data for Examples 1-600, 603-620 and 703-705 was generated according to Procedure A. GSPT1 data for Examples 601, 621-702 and 706-735 was generated according to Procedure B.

GSPT1 = GSPT1 (Homo sapiens, UniProt P15170+Q96SW2); assay: HiBiT degradation assay, GSPT1, Procedure A; type: cell-based; design: HiBit-GSPT1 KI HEK293(LgBit) Cells; host or cells: HEK293(LgBit) knock-in cells
Sequence of GSPT1 (P15170 whole entry): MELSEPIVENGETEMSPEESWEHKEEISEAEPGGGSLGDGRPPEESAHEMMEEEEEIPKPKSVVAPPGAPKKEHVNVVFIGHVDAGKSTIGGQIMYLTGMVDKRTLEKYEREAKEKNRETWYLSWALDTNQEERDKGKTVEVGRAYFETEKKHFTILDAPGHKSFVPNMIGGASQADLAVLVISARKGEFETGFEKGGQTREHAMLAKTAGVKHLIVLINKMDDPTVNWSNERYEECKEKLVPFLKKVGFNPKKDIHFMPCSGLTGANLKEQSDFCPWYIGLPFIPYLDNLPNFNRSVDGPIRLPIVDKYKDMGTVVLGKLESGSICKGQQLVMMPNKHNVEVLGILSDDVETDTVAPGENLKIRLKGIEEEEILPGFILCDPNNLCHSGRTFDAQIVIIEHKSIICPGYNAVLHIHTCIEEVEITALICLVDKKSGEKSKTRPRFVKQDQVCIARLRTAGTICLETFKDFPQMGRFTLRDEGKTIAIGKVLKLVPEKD
Sequence of GSPT1 (Q96SW2 whole entry): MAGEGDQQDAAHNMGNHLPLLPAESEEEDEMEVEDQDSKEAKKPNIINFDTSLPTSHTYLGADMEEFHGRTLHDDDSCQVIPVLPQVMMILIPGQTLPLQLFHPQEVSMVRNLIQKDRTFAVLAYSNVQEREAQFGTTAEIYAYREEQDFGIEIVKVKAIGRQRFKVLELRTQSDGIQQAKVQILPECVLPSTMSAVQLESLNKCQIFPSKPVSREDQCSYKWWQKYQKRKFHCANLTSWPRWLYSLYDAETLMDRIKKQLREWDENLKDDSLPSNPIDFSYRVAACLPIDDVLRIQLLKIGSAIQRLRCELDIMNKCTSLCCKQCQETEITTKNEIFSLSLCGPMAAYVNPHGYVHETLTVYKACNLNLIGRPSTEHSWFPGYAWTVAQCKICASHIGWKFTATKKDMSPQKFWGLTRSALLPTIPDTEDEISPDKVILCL
Sequence of GSPT1 (Q16531 whole entry partner): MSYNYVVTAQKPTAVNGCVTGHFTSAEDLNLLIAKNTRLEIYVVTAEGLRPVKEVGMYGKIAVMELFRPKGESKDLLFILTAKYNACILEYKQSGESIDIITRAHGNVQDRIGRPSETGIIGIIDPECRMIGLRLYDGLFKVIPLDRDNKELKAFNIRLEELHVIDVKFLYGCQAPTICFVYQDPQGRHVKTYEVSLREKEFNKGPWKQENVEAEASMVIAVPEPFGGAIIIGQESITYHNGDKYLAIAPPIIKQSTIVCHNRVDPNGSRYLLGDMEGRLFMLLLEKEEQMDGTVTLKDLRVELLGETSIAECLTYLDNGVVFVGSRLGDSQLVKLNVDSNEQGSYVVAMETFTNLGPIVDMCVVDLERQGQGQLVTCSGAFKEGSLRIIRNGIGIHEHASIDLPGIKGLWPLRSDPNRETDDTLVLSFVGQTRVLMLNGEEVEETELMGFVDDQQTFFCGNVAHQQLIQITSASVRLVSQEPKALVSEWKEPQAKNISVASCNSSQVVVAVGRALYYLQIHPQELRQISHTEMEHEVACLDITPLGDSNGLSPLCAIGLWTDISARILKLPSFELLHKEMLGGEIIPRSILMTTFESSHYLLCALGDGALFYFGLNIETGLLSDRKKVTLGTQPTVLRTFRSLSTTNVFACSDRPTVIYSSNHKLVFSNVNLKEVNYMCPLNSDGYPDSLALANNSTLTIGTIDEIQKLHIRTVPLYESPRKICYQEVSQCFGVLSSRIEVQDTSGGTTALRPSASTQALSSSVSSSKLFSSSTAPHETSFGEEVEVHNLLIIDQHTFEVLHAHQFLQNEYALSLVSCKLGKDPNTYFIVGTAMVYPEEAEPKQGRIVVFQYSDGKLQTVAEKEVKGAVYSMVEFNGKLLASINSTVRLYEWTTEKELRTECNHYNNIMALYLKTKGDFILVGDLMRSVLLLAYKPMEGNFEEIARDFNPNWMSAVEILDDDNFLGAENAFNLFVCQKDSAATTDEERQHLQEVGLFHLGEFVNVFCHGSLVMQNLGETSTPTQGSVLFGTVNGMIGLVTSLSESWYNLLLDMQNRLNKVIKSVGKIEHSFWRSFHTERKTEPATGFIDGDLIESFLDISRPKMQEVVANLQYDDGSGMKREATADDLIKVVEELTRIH
Method: as §1, §2, §3

T1 sequence (P48729 whole entry): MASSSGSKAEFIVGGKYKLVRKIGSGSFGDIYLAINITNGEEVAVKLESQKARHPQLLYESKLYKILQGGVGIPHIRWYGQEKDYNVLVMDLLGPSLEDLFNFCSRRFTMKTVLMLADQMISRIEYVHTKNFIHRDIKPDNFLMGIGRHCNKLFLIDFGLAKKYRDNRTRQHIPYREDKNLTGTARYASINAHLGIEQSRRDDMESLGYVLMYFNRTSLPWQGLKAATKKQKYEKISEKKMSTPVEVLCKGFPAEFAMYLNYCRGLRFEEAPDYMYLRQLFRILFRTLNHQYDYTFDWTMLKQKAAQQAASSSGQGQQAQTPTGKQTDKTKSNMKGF
T1 sequence (Q96SW2 whole entry): as the sequence (Q96SW2 whole entry) above
T1 sequence (Q16531 whole entry partner): as the sequence (Q16531 whole entry partner) above

| SMILES | CK1α Ymin (CK1α; six hours) | DC50 (CK1α; six hours) [nM] | DC50 (GSPT1; six hours) [nM] | GSPT1 Ymin (GSPT1; six hours) | CK1α Ymin (CK1α; six hours incubation) | DC50 (CK1α; six hours incubation) [nM] | DC50 (GSPT1; six hours incubation) [nM] | GSPT1 Ymin (GSPT1; six hours incubation) |
| --- | --- | --- | --- | --- | --- | --- | --- | --- |
| Cn1ncc(-c2ccc3c(c2)CN(C2CCC(=O)NC2=O)C3=O)c1-c1ccc(S(C)(=O)=O)cc1 (stereo not shown) [Example 221] |  |  |  |  | E (E = >25-75% remaining) | ≥ 25 | ≥ 25 | F (F = >75-100% remaining) |
| CN1CC=C(c2c(-c3ccc4c(c3)CN(C3CCC(=O)NC3=O)C4=O)cnn2C)CC1 (stereo not shown) [Example 591] | E (E = >25-75% remaining) | ≥ 25 | < 25 | F (F = >75-100% remaining) |  |  |  |  |
| Cc1ccc(F)c(-c2c(-c3ccc4c(c3)CN(C3CCC(=O)NC3=O)C4=O)cnn2C)c1 (stereo not shown) [Example 89] |  |  |  |  | E (E = >25-75% remaining) | < 25 | ≥ 25 | F (F = >75-100% remaining) |
| [2H]C([2H])([2H])n1ncc(-c2ccc3c(c2)CN(C2CCC(=O)NC2=O)C3=O)c1-c1ccc(OC)cc1Cl (stereo not shown) [Example 434, 3-(5-(5-(2-chloro-4-methoxyphenyl)-1-(methyl-d3)-1H-pyrazol-4-yl)-1-oxoisoindolin-2-yl)piperidine-2,6-dione] | C (C = 0-10% remaining) | < 25 | ≥ 25 | F (F = >75-100% remaining) |  |  |  |  |
| Cc1c(F)cccc1-c1c(-c2ccc3c(c2)CN(C2CCC(=O)NC2=O)C3=O)cnn1C (stereo not shown) [Example 125] |  |  |  |  | E (E = >25-75% remaining) | < 25 | ≥ 25 | F (F = >75-100% remaining) |
| Cc1ccc(-c2c(-c3ccc4c(c3)CN(C3CCC(=O)NC3=O)C4=O)ncn2C)cc1 (stereo not shown) [Example 227] |  |  |  |  | D (D = >10- 25% remaining) | < 25 | < 25 | E (E = >25-75% remaining) |
| Cn1ncc(-c2ccc3c(c2)CN(C2CCC(=O)NC2=O)C3=O)c1-c1ccc2ccn(C)c2c1 (stereo not shown) [Example 386] | E (E = >25-75% remaining) | < 25 | ≥ 25 | F (F = >75-100% remaining) |  |  |  |  |
| CC(C)Cn1cc(-c2c(-c3ccc4c(c3)CN(C3CCC(=O)NC3=O)C4=O)cnn2C)cn1 (stereo not shown) [Example 384] | E (E = >25-75% remaining) | ≥ 25 | < 25 | F (F = >75-100% remaining) |  |  |  |  |
| COc1cccc(-c2c(-c3ccc4c(c3)CN(C3CCC(=O)NC3=O)C4=O)ncn2C)c1Cl (stereo not shown) [Example 277] |  |  |  |  | E (E = >25-75% remaining) | < 25 | < 25 | F (F = >75-100% remaining) |
| O=C1CCC(N2Cc3cc(-c4nc[nH]c4-c4ccccc4)ccc3C2=O)C(=O)N1 (stereo not shown) [Example 13, 3-(1-Oxo-5-(5-phenyl-1H-imidazol-4-yl)isoindolin-2-yl) piperidine-2,6-dione] |  |  |  |  | C (C = 0-10% remaining) | < 25 | < 25 | E (E = >25-75% remaining) |
| Cn1nc(-c2ccc3c(c2)CN(C2CCC(=O)NC2=O)C3=O)cc1-c1cncnc1 (stereo not shown) [Example 533] | E (E = >25-75% remaining) | ≥ 25 | ≥ 25 | F (F = >75-100% remaining) |  |  |  |  |
| Cn1cnc(-c2ccc3c(c2)CN(C2CCC(=O)NC2=O)C3=O)c1-c1cccnc1 (stereo not shown) [Example 482] | D (D = >10- 25% remaining) | < 25 | < 25 | E (E = >25-75% remaining) |  |  |  |  |

More lines, now with the values ahead:

| CK1α Ymin (CK1α; six hours) | DC50 (CK1α; six hours) [nM] | DC50 (GSPT1; six hours) [nM] | GSPT1 Ymin (GSPT1; six hours) | CK1α Ymin (CK1α; six hours incubation) | DC50 (CK1α; six hours incubation) [nM] | DC50 (GSPT1; six hours incubation) [nM] | GSPT1 Ymin (GSPT1; six hours incubation) | SMILES |
| --- | --- | --- | --- | --- | --- | --- | --- | --- |
| D (D = >10- 25% remaining) | < 25 | ≥ 25 | F (F = >75-100% remaining) |  |  |  |  | Cn1c(-c2ccc3c(c2)CN(C2CCC(=O)NC2=O)C3=O)cnc1N1CCCCC1 (stereo not shown) [Example 537, 3-(5-(1-methyl-2-(piperidin-1-yl)-1H-imidazol-5-yl)-1-oxoisoindolin-2-yl)piperidine-2,6-dione] |
| C (C = 0-10% remaining) | ≥ 25 | ≥ 25 | F (F = >75-100% remaining) |  |  |  |  | Cc1nc2ccc(-c3c(-c4ccc5c(c4)CN(C4CCC(=O)NC4=O)C5=O)cnn3C)cc2[nH]1 (stereo not shown) [Example 391] |
|  |  |  |  | D (D = >10- 25% remaining) | < 25 | ≥ 25 | F (F = >75-100% remaining) | COc1ccc(C)cc1-c1c(-c2ccc3c(c2)CN(C2CCC(=O)NC2=O)C3=O)ncn1C (stereo not shown) [Example 249] |
|  |  |  |  | E (E = >25-75% remaining) | < 25 | ≥ 25 | F (F = >75-100% remaining) | Cn1ncc(-c2ccc3c(c2)CN(C2CCC(=O)NC2=O)C3=O)c1-c1ccc(Cl)c(F)c1 (stereo not shown) [Example 90] |
|  |  |  |  | E (E = >25-75% remaining) | < 25 | < 25 | E (E = >25-75% remaining) | Cc1cc(Cl)ccc1-c1c(-c2ccc3c(c2)CN(C2CCC(=O)NC2=O)C3=O)ncn1C (stereo not shown) [Example 254] |
| D (D = >10- 25% remaining) | < 25 | ≥ 25 | F (F = >75-100% remaining) |  |  |  |  | CC1CCN(c2nc(-c3ccc4c(c3)CN(C3CCC(=O)NC3=O)C4=O)nn2C)CC1 (stereo not shown) [Example 600, 3-(5-(1-methyl-5-(4-methylpiperidin-1-yl)-1H-1,2,4-triazol-3-yl)-1-oxoisoindolin-2-yl)piperidine-2,6-dione] |
|  |  |  |  | D (D = >10- 25% remaining) | < 25 | < 25 | F (F = >75-100% remaining) | Cn1ncc(-c2ccc3c(c2)CN(C2CCC(=O)NC2=O)C3=O)c1-c1cc(F)cc(F)c1 (stereo not shown) [Example 178] |
|  |  |  |  | D (D = >10- 25% remaining) | < 25 | ≥ 25 | F (F = >75-100% remaining) | Cc1ccc(-c2c(-c3ccc4c(c3)CN(C3CCC(=O)NC3=O)C4=O)ncn2C)c(C#N)c1 (stereo not shown) [Example 244] |
|  |  |  |  | E (E = >25-75% remaining) | < 25 | ≥ 25 | F (F = >75-100% remaining) | O=C1CCC(N2Cc3cc(-c4cncn4-c4ccccc4)ccc3C2=O)C(=O)N1 (stereo not shown) [Example 205, 3-(1-Oxo-5-(1-phenyl-1H-imidazol-5-yl)isoindolin-2-yl)piperidine-2,6-dione] |
|  |  |  |  | E (E = >25-75% remaining) | < 25 | ≥ 25 | F (F = >75-100% remaining) | Cn1ncc(-c2ccc3c(c2)CN(C2CCC(=O)NC2=O)C3=O)c1-c1ccccc1F (stereo not shown) [Example 67] |
|  |  |  |  | E (E = >25-75% remaining) | < 25 | ≥ 25 | E (E = >25-75% remaining) | Cc1cc(-c2c(-c3ccc4c(c3)CN(C3CCC(=O)NC3=O)C4=O)cnn2C)ccc1F (stereo not shown) [Example 91] |
|  |  |  |  | E (E = >25-75% remaining) | < 25 | ≥ 25 | E (E = >25-75% remaining) | O=C1CCC(N2Cc3cc(-c4cnn(C(F)(F)F)c4-c4ccccc4)ccc3C2=O)C(=O)N1 (stereo not shown) [Example 333, 3-(1-oxo-5-(5-phenyl-1-(trifluoromethyl)-1H-pyrazol-4-yl)isoindolin-2-yl)piperidine-2,6-dione] |
| D (D = >10- 25% remaining) | < 25 | ≥ 25 | F (F = >75-100% remaining) |  |  |  |  | Cn1cnc(-c2ccc3c(c2)CN(C2CCC(=O)NC2=O)C3=O)c1-c1ccc2cccnc2c1 (stereo not shown) [Example 493] |
